The values below are quoted from earlier work in patent US7205335B2, “Preparation of cis-fused 3,3a,8,12b-tetrahydro-2H-dibenzo[3,4:6,7]cyclohepta[1,2-b]furan derivatives” (priority 2001, dated 2007).

SMILES strings stand for the structures.

The conditions of this data set: dose of 300 mg/kg.

Take `CNCC1CC2c3ccccc3Cc3ccccc3C2O1.O=C(O)C(=O)O` (racemic) [(±)-3,3a,8,12b-tetrahydro-N-methyl-2H-dibenzo[3,4:6,7]-cyclohepta-[1,2-b]furan-2-methanamine oxalic acid]: the “activity as an antidepressant” value was “inactive”.
